Measured values reported in US6914045B2, “Glycopeptide antibiotics” (Wyeth Holdings Corporation, priority 2001, dated 2005).
Converted amounts (≈) assume the structure as drawn.

Tests used:
Test in all cases: in vitro antibacterial evaluation, MIC by broth dilution
Type in all cases: cell-based
Staphylococcus sp. = details: broth dilution, 18 hours at 35° C.; for MIC Staphylococcus aureus (GC 1131): strain GC 1131; for MIC Staphylococcus aureus (ATCC 29213): strain ATCC 29213; for MIC Staphylococcus aureus (GC 3051): strain GC 3051; for MIC Staphylococcus aureus (GC 3053): strain GC 3053; for MIC Staphylococcus aureus (GC 4541): strain GC 4541; for MIC Staphylococcus aureus (GC 4542): strain GC 4542; for MIC Staphylococcus aureus-SMITH (GC 4543): strain GC 4543; for MIC Staphylococcus aureus (GC 4544): strain GC 4544; for MIC Staphylococcus aureus (GC 4545): strain GC 4545; for MIC Staphylococcus haemolyticus (GC 4546): strain GC 4546; for MIC Coagulase Negative Staphylococcus (GC 4547): strain GC 4547; for MIC Coagulase Negative Staphylococcus (GC 4548): strain GC 4548; for MIC Coagulase Negative Staphylococcus (GC 4549): strain GC 4549; for MIC Coagulase Negative Staphylococcus (GC 4551): strain GC 4551
Outline: (§1)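 MIC = lowest antibiotic concentration preventing visible growth; inoculum 5×10^5 CFU/mL; drug range 64-0.06 μg/mL; Muller-Hinton II […]; NCCLS M7-A2 guidance.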

Enterococcus sp. = details: broth dilution, 18 hours at 35° C.
Outline: as §1

Streptococcus sp. = details: broth dilution, 18 hours at 35° C.
Outline: as §1

Escherichia coli = details: 18 hours at 35° C.

N=C1NCC(C(O)C2NC(=O)C(Cc3ccc(OC4OC(CO)C(OC5OC6COC(Cc7ccccc7)OC6C(O)C5O)C(O)C4O)cc3)NC(=O)C(CC3CCCCC3)NC(=O)CNC(=O)C(CO)NC(=O)C(C(O)C3CNC(=N)N3C3OC(CO)C(O)C(O)C3O)NC2=O)N1 (centres unmarked) [Example 200]
MIC Staphylococcus aureus (GC 1131) (Staphylococcus sp.; inoculum 5×10^5 CFU/mL): 2 µg/mL (≈ 1.44 µM) | MIC Staphylococcus aureus (ATCC 29213) (Staphylococcus sp.): 1 µg/mL (≈ 0.72 µM) | MIC Staphylococcus aureus (GC 1131) (Staphylococcus sp.): 2 µg/mL (≈ 1.44 µM) | MIC Staphylococcus aureus (GC 3051) (Staphylococcus sp.): 1 µg/mL (≈ 0.72 µM) | MIC Staphylococcus aureus (GC 3053) (Staphylococcus sp.): 2 µg/mL (≈ 1.44 µM) | MIC Staphylococcus aureus (GC 4541) (Staphylococcus sp.): 1 µg/mL (≈ 0.72 µM) | MIC Staphylococcus aureus (GC 4542) (Staphylococcus sp.): 1 µg/mL (≈ 0.72 µM) | MIC Staphylococcus aureus-SMITH (GC 4543) (Staphylococcus sp.): 1 µg/mL (≈ 0.72 µM) | MIC Staphylococcus aureus (GC 4544) (Staphylococcus sp.): 2 µg/mL (≈ 1.44 µM) | MIC Staphylococcus aureus (GC 4545) (Staphylococcus sp.): 1 µg/mL (≈ 0.72 µM) | MIC Staphylococcus haemolyticus (GC 4546) (Staphylococcus sp.): 1 µg/mL (≈ 0.72 µM) | MIC Coagulase Negative Staphylococcus (GC 4547) (Staphylococcus sp.): 2 µg/mL (≈ 1.44 µM) | MIC Coagulase Negative Staphylococcus (GC 4548) (Staphylococcus sp.): 1 µg/mL (≈ 0.72 µM) | MIC Coagulase Negative Staphylococcus (GC 4549) (Staphylococcus sp.): 1 µg/mL (≈ 0.72 µM) | MIC Coagulase Negative Staphylococcus (GC 4551) (Staphylococcus sp.): 2 µg/mL (≈ 1.44 µM) | MIC Enterococcus avium (GC 4558) (Enterococcus sp.): 4 µg/mL (≈ 2.88 µM) | MIC Enterococcus faecalis (ATCC 29212) (Enterococcus sp.): 4 µg/mL (≈ 2.88 µM) | MIC Enterococcus faecalis (GC 2242) (Enterococcus sp.): 0.5 µg/mL (≈ 0.36 µM) | MIC Enterococcus faecalis (GC 2691) (Enterococcus sp.): 4 µg/mL (≈ 2.88 µM) | MIC Enterococcus faecalis (GC 3059) (Enterococcus sp.): 2 µg/mL (≈ 1.44 µM) | MIC Enterococcus faecalis (GC 4552) (Enterococcus sp.): 2 µg/mL (≈ 1.44 µM) | MIC Enterococcus faecalis (GC 4553) (Enterococcus sp.): 4 µg/mL (≈ 2.88 µM) | MIC Enterococcus faecalis (GC 4554) (Enterococcus sp.): 4 µg/mL (≈ 2.88 µM) | MIC Enterococcus faecalis (GC 6189) (Enterococcus sp.): 2 µg/mL (≈ 1.44 µM) | MIC Enterococcus faecium (GC 2243) (Enterococcus sp.): 4 µg/mL (≈ 2.88 µM) | MIC Enterococcus faecium (GC 4556) (Enterococcus sp.): 4 µg/mL (≈ 2.88 µM) | MIC Enterococcus faecium (GC 4557) (Enterococcus sp.): 2 µg/mL (≈ 1.44 µM) | MIC Enterococcus faecalis (ATCC 29212) (Enterococcus sp.; inoculum 5×10^5 CFU/mL, strain ATCC 29212): 4 µg/mL (≈ 2.88 µM) | MIC Enterococcus faecalis (GC 2242) (Enterococcus sp.; inoculum 5×10^5 CFU/mL, strain GC 2242): 0.5 µg/mL (≈ 0.36 µM) | MIC Enterococcus faecium (GC 2243) (Enterococcus sp.; inoculum 5×10^5 CFU/mL, strain GC 2243): 4 µg/mL (≈ 2.88 µM) | MIC Enterococcus faecalis (GC 2691) (Enterococcus sp.; inoculum 5×10^5 CFU/mL, strain GC 2691): 4 µg/mL (≈ 2.88 µM) | MIC Enterococcus faecalis (GC 3059) (Enterococcus sp.; inoculum 5×10^5 CFU/mL, strain GC 3059): 2 µg/mL (≈ 1.44 µM) | MIC Enterococcus faecalis (GC 4552) (Enterococcus sp.; inoculum 5×10^5 CFU/mL, strain GC 4552): 2 µg/mL (≈ 1.44 µM) | MIC Enterococcus faecalis (GC 4553) (Enterococcus sp.; inoculum 5×10^5 CFU/mL, strain GC 4553): 4 µg/mL (≈ 2.88 µM) | MIC Enterococcus faecalis (GC 4554) (Enterococcus sp.; inoculum 5×10^5 CFU/mL, strain GC 4554): 4 µg/mL (≈ 2.88 µM) | MIC Enterococcus faecium (GC 4556) (Enterococcus sp.; inoculum 5×10^5 CFU/mL, strain GC 4556): 4 µg/mL (≈ 2.88 µM) | MIC Enterococcus faecium (GC 4557) (Enterococcus sp.; inoculum 5×10^5 CFU/mL, strain GC 4557): 2 µg/mL (≈ 1.44 µM) | MIC Enterococcus avium (GC 4558) (Enterococcus sp.; inoculum 5×10^5 CFU/mL, strain GC 4558): 4 µg/mL (≈ 2.88 µM) | MIC Enterococcus faecalis (GC 6189) (Enterococcus sp.; inoculum 5×10^5 CFU/mL, strain GC 6189): 2 µg/mL (≈ 1.44 µM) | MIC Streptococcus agalactiae (GC 4564) (Streptococcus sp.): 0.12 µg/mL (≈ 0.0864 µM) | MIC Streptococcus pneumoniae (ATCC 6301) (Streptococcus sp.): <0.06 µg/mL | MIC Streptococcus pneumoniae (GC 1894) (Streptococcus sp.): <0.06 µg/mL | MIC Streptococcus pneumoniae (GC 4565) (Streptococcus sp.): <0.06 µg/mL | MIC Streptococcus pyogenes (GC 4563) (Streptococcus sp.): <0.06 µg/mL | MIC Streptococcus pneumoniae (ATCC 6301) (Streptococcus sp.; inoculum 5×10^5 CFU/mL, strain ATCC 6301): <0.06 µg/mL | MIC Streptococcus pneumoniae (GC 1894) (Streptococcus sp.; inoculum 5×10^5 CFU/mL, strain GC 1894): <0.06 µg/mL | MIC Streptococcus pyogenes (GC 4563) (Streptococcus sp.; inoculum 5×10^5 CFU/mL, strain GC 4563): <0.06 µg/mL | MIC Streptococcus agalactiae (GC 4564) (Streptococcus sp.; inoculum 5×10^5 CFU/mL, strain GC 4564): 0.12 µg/mL (≈ 0.0864 µM) | MIC Streptococcus pneumoniae (GC 4565) (Streptococcus sp.; inoculum 5×10^5 CFU/mL, strain GC 4565): <0.06 µg/mL | MIC Escherichia coli (ATCC 25922) (Escherichia coli): 32 µg/mL (≈ 23 µM) | MIC Escherichia coli (GC 4559) (Escherichia coli): 32 µg/mL (≈ 23 µM) | MIC Escherichia coli (GC 4560) (Escherichia coli): 1 µg/mL (≈ 0.72 µM)

CC(C1CCCCC1)C1NC(=O)CNC(=O)C(CO)NC(=O)C(C(O)C2CNC(=N)N2C2OC(CO)C(O)C(O)C2O)NC(=O)C(C(O)C2CNC(=N)N2)NC(=O)C(CC2CCC(OC3OC(CO)C(OC4OC(CO)C(O)C(O)C4O)C(O)C3O)CC2)NC1=O (centres unmarked) [Example 53a, Cyclo[3-[4-[(4-O-hexopyranosylhexopyranosyl)oxy]cyclohexyl]alanyl-3-(2-iminoimidazolidin-4-yl)seryl-3-(3-hexopyranosyl-2-iminoimidazolidin-4-yl)serylserylglycyl-3-cyclohexyl-2-aminobutanoyl]]
MIC Staphylococcus aureus (ATCC 29213) (Staphylococcus sp.): >128 µg/mL | MIC Staphylococcus aureus (GC 1131) (Staphylococcus sp.): >128 µg/mL | MIC Staphylococcus aureus (GC 3051) (Staphylococcus sp.): >128 µg/mL | MIC Staphylococcus aureus (GC 3053) (Staphylococcus sp.): >128 µg/mL | MIC Staphylococcus aureus (GC 4541) (Staphylococcus sp.): >128 µg/mL | MIC Staphylococcus aureus (GC 4542) (Staphylococcus sp.): >128 µg/mL | MIC Staphylococcus aureus-SMITH (GC 4543) (Staphylococcus sp.): >128 µg/mL | MIC Staphylococcus aureus (GC 4544) (Staphylococcus sp.): >128 µg/mL | MIC Staphylococcus aureus (GC 4545) (Staphylococcus sp.): >128 µg/mL | MIC Staphylococcus haemolyticus (GC 4546) (Staphylococcus sp.): >128 µg/mL | MIC Coagulase Negative Staphylococcus (GC 4547) (Staphylococcus sp.): >128 µg/mL | MIC Coagulase Negative Staphylococcus (GC 4548) (Staphylococcus sp.): >128 µg/mL | MIC Coagulase Negative Staphylococcus (GC 4549) (Staphylococcus sp.): >128 µg/mL | MIC Coagulase Negative Staphylococcus (GC 4551) (Staphylococcus sp.): >128 µg/mL | MIC Enterococcus avium (GC 4558) (Enterococcus sp.; Enterococcus avium (GC 4558)): >128 µg/mL | MIC Enterococcus faecalis (ATCC 29212) (Enterococcus sp.; Enterococcus faecalis (ATCC 29212)): >128 µg/mL | MIC Enterococcus faecalis (GC 4552) (Enterococcus sp.; Enterococcus faecalis (GC 4552)): >128 µg/mL | MIC Enterococcus faecalis (GC 4553) (Enterococcus sp.; Enterococcus faecalis (GC 4553)): >128 µg/mL | MIC Enterococcus faecalis (GC 4554) (Enterococcus sp.; Enterococcus faecalis (GC 4554)): >128 µg/mL | MIC Enterococcus faecalis (GC 6189) (Enterococcus sp.; Enterococcus faecalis (GC 6189)): >128 µg/mL | MIC Enterococcus faecium (GC 2243) (Enterococcus sp.; Enterococcus faecium (GC 2243)): >128 µg/mL | MIC Enterococcus faecium (GC 4556) (Enterococcus sp.; Enterococcus faecium (GC 4556)): >128 µg/mL | MIC Enterococcus faecium (GC 4557) (Enterococcus sp.; Enterococcus faecium (GC 4557)): >128 µg/mL | MIC Enterococcus faecalis (ATCC 29212) (Enterococcus sp.; strain ATCC 29212): >128 µg/mL | MIC Enterococcus faecalis (GC 2242) (Enterococcus sp.; strain GC 2242): >128 µg/mL | MIC Enterococcus faecium (GC 2243) (Enterococcus sp.; strain GC 2243): >128 µg/mL | MIC Enterococcus faecalis (GC 2691) (Enterococcus sp.; strain GC 2691): >128 µg/mL | MIC Enterococcus faecalis (GC 3059) (Enterococcus sp.; strain GC 3059): >128 µg/mL | MIC Enterococcus faecalis (GC 4552) (Enterococcus sp.; strain GC 4552): >128 µg/mL | MIC Enterococcus faecalis (GC 4553) (Enterococcus sp.; strain GC 4553): >128 µg/mL | MIC Enterococcus faecalis (GC 4554) (Enterococcus sp.; strain GC 4554): >128 µg/mL | MIC Enterococcus faecium (GC 4556) (Enterococcus sp.; strain GC 4556): >128 µg/mL | MIC Enterococcus faecium (GC 4557) (Enterococcus sp.; strain GC 4557): >128 µg/mL | MIC Enterococcus avium (GC 4558) (Enterococcus sp.; strain GC 4558): >128 µg/mL | MIC Enterococcus faecalis (GC 6189) (Enterococcus sp.; strain GC 6189): >128 µg/mL | MIC Streptococcus pneumoniae (ATCC 6301) (Streptococcus sp.; strain ATCC 6301): 64 µg/mL (≈ 49 µM) | MIC Streptococcus pneumoniae (GC 1894) (Streptococcus sp.; strain GC 1894): 32 µg/mL (≈ 24.5 µM) | MIC Streptococcus pyogenes (GC 4563) (Streptococcus sp.; strain GC 4563): 64 µg/mL (≈ 49 µM) | MIC Streptococcus agalactiae (GC 4564) (Streptococcus sp.; strain GC 4564): 64 µg/mL (≈ 49 µM) | MIC Streptococcus pneumoniae (GC 4565) (Streptococcus sp.; strain GC 4565): 64 µg/mL (≈ 49 µM) | MIC Escherichia coli (ATCC 25922) (Escherichia coli; strain ATCC 25922, broth dilution): >128 µg/mL | MIC Escherichia coli (GC 4559) (Escherichia coli; strain GC 4559, broth dilution): >128 µg/mL | MIC Escherichia coli (GC 4560) (Escherichia coli; strain GC 4560, broth dilution): >128 µg/mL
